According to patent US8822691B2, “Pesticidal carboxamides” (Bayer CropScience AG, priority 2009, dated 2014):
Values joined by “and” are separate entries in the source; they are usually repeats but may differ in a detail not shown here. Equal entries are not always repeated.

How the values were obtained:
Format in all cases: in vivo
Spodoptera litura = assay: Test against tobacco cutworm (Spodoptera litura) larvae, leaf dip; settings: active compound concentration of 100 ppm, third instar larvae on sweet potato leaves, after 7 days; for pest or weed control at 100 ppm: foliar, 168 h, read-out: insecticidal activity
Procedure: (§1) Unless not mentioned otherwise, the test solutions were prepared as follows:
(§2) Containing as solvent: Dimethylformamide, 3 parts by weight; and as emulsifier: Polyoxyethylene alkyl phenyl ether, 1 part by weight
(§3) To prepare the test solution, 1 part by weight of an active compound is mixed with the above-mentioned amount of solvent containing the above-mentioned amount of emulsifier, and the mixture is diluted with water to the desired concentration.
Leaves of sweet potato were immersed in the test solution at the appropriate concentration, and the leaves were dried in air. The leaves were then placed in a petri dish having a diameter of 9 cm, and ten Spodoptera litura at third instar larvae were released therein. The petri dishes were placed in a temperature-controlled chamber at 25° C. After 2 days and 4 days more sweet potato leaves were added. After 7 days, the number of dead larvae was counted to calculate the insecticidal activity. An insecticidal activity of 100% means that all larvae were killed, whereas an insecticidal activity of 0% means that no larva was killed. In the current test, the results of two petri dishes for each treatment were averaged.

Aulacophora femoralis = assay: Test against cucurbit leaf beetle (Aulacophora femoralis), leaf dip; settings: active compound concentration of 500 ppm, second instar larvae on cucumber leaves, after 7 days; for pest or weed control at 500 ppm: Aulacophora, foliar, 168 h, read-out: insecticidal activity
Procedure: as §1, §2, §3
Leaves of cucumber were immersed in the test solution at the appropriate concentration, and the leaves were dried in air. The leaves were then put in a plastic cup containing sterilized black soil and five Aulacophora femoralis at second instar larvae were released in the cup. The cups were placed in a temperature-controlled chamber at 25° C. After 7 days, the number of dead larvae was counted, and thus the insecticidal activity was calculated. An insecticidal activity of 100% means that all larvae were killed, whereas an insecticidal activity of 0% means that no larva was killed.

Musca domestica = assay: Musca domestica-test; settings: for activity (mortality): application rate of 100 ppm, adults, after 2 days; for mortality at 100 ppm: Musca domestica, 48 h, read-out: activity (mortality)
Procedure: (§4) Solvent: dimethyl sulfoxide
To produce a suitable preparation of active compound, 10 mg of active compound are dissolved in 0.5 ml solvent, and the concentrate is diluted with water to the desired concentration. Prior to the assay, a piece of kitchen sponge is soaked with a mixture of sugar and compound solution and placed into a container. 10 adults (Musca domestica) are placed into the container and closed with a perforated lid. After 2 days mortality in % is determined. 100% means that all the flies have been killed; 0% means that none of the flies have been killed.

Tetranychus urticae = assay: Test against two-spotted spider mite (Tetranychus urticae), spray; settings: active compound concentration of 500 ppm, adult mites on kidney bean, after 7 days; for pest or weed control at 500 ppm: Tetranychus urticae, 168 h, read-out: acaricidal activity
Procedure: as §1, §2, §3
50 to 100 adult mites of Tetranychus urticae were inoculated to leaves of kidney bean at two-leaf stage planted in a pot of 6 cm in diameter. After one day, test solution at the appropriate concentration was sprayed thereon in a sufficient amount using a spray gun. After the spraying, the plant pot was placed inside a greenhouse, and after 7 days, the acaricidal activity was calculated. An acaricidal activity of 100% means that all mites were killed, whereas an acaricidal activity of 0% means that no mite was killed.

Ctenocephalides felis = assay: Ctenocephalides felis-test (CTECFE); settings: adult unfed fleas, after 2 days; for mortality at 100 ppm: Ctenocephalides felis, in Bos taurus, 48 h, read-out: activity (mortality), application rate of 100 ppm in cattle blood
Procedure: as §4
To produce a suitable preparation of active compound, 10 mg of active compound are dissolved in 0.5 ml solvent, and the concentrate is diluted with cattle blood to the desired concentration. Approximately 20 adult unfed (Ctenocepahlides felis) are placed in flea chambers. The blood chamber, sealed with parafilm on the bottom, are filled with cattle blood supplied with compound solution and placed on top of the flea chamber, so that the fleas are able to suck the blood. The blood chamber is heated to 37° C. whereas the flea chamber is kept at room temperature. After 2 days mortality in % is determined. 100% means that all the fleas have been killed; 0% means that none of the fleas have been killed.

Lucilia cuprina = Lucilia cuprina (48 h) larval test; settings: Lucilia cuprina, 48 h, read-out: activity (larval mortality)
Procedure: Species: Lucilia cuprina 1st instar larvae (age 24 hrs)
as §4
10 mg active compound are dissolve in 0.5 ml dimethyl sulfoxide. Serial dilutions are made to obtain the desired rates. Approximately 20 Lucilia cuprina 1st instar larvae are transferred into a test tube containing 1 cm^3 of minced horse meat and 0.5 ml aqueous dilution of test compound. After 48 hrs percentage of larval mortality are recorded. 100% efficacy all larvae are killed, % efficacy normally developed larvae after 48 hrs.

Boophilus microplus [1] = assay: Boophilus microplus-test (injection); settings: Rhipicephalus microplus, 168 h, read-out: activity (mortality in %; 100% means that all eggs are infertile)
Procedure: as §4
To produce a suitable preparation of active compound, 10 mg of active compound are dissolved in 0.5 ml solvent, and the concentrate is diluted with solvent to the desired concentration. Five adult engorged female ticks (Boophilus microplus) are injected with 1 μl compound solution into the abdomen. Ticks are transferred into replica plates and incubated in a climate chamber for a period of time. Egg deposition of fertile eggs is monitored.
After 7 days mortality in % is determined. 100% means that all eggs are infertile; 0% means that all eggs are fertile.

Boophilus microplus [2] = assay: Boophilus microplus (dip); settings: for mortality at 100 ppm: Rhipicephalus microplus, 168 h, read-out: activity (mortality)
Procedure: Solvent: Dimethylsulfoxid
To produce a suitable preparation of active compound, 10 mg of active compound are dissolved in 0.5 ml solvent, and the concentrate is diluted with water to the desired concentration. Eight to ten adult engorged female Boophilus microplus ticks are placed in perforated plastic beakers and immersed in aqueous compound solution for one minute. Ticks are transferred to a filter paper in a plastic tray. Egg deposition of fertile eggs is monitored after. After 7 days mortality in % is determined. 100% means that all the ticks have been killed; 0% means that none of the ticks have been killed.

Structure (SMILES)	insecticidal activity (Spodoptera litura) [%]	insecticidal activity (Aulacophora femoralis) [%]	activity (mortality) (Musca domestica) [%]	acaricidal activity (Tetranychus urticae) [%]	pest or weed control at 100 ppm (Spodoptera litura) [%]	mortality at 100 ppm (Ctenocephalides felis) [%]	mortality at 100 ppm (Lucilia cuprina) [%]	mortality at 0.02 mg (Boophilus microplus [1]) [%]	mortality at 100 ppm (Boophilus microplus [2]) [%]	pest or weed control at 500 ppm (Aulacophora femoralis) [%]	mortality at 100 ppm (Musca domestica) [%]	pest or weed control at 500 ppm (Tetranychus urticae) [%]	activity (mortality) (Boophilus microplus [2]; application rate of 100 ppm, dip of adult engorged female ticks for one minute, after 7 days) [%]	activity (mortality) (Ctenocephalides felis; application rate of 100 ppm in cattle blood)
CCc1cc(C(F)(C(F)(F)F)C(F)(F)C(F)(F)F)cc(C)c1NC(=O)c1ccc2nc(C#N)ccc2c1 (centres unmarked) [2-90]	100	100	80	100	–	–	–	–	–	–	–	–	–	–
N#Cc1ccc2cc(C(=O)Nc3c(Br)cc(C(F)(C(F)(F)F)C(F)(F)Br)cc3OC(F)F)ccc2n1 (centres unmarked) [Compound No. 2-203, N-[2-bromo-4-(1-bromo-1,1,2,3,3,3-hexafluoropropan-2-yl)-6-(difluoromethoxy)phenyl]-2-cyanoquinoline-6-carboxamide]	–	–	–	–	100	100	100	100	100	100	100	100	–	–
Cc1cc(C(F)(C(F)(F)F)C(F)(F)F)cc(C)c1NC(=O)c1cc(Cl)c2ncc(Cl)cc2c1 [2-214, 3,8-dichloro-N-[4-(1,1,1,2,3,3,3-heptafluoropropan-2-yl)-2,6-dimethylphenyl]quinoline-6-carboxamide]	–	–	–	–	100	–	90	100	–	100	–	–	–	–
N#Cc1ccc2cc(C(=O)Nc3c(I)cc(C(F)(C(F)(F)F)C(F)(F)C(F)(F)F)cc3OC(F)F)ccc2n1 (centres unmarked) [Compound No. 2-176, 2-cyano-N-[2-(difluoromethoxy)-6-iodo-4-(1,1,1,2,3,3,4,4,4-nonafluorobutan-2-yl)phenyl]quinoline-6-carboxamide]	–	–	–	–	100	90	100	100	100	100	100	100	–	–
O=C(Nc1c(Br)cc(C(F)(C(F)(F)F)C(F)(F)Br)cc1OC(F)F)c1ccc2c(ccc[n+]2[O-])c1 (centres unmarked) [Compound No. 2-202, N-[2-bromo-4-(1-bromo-1,1,2,3,3,3-hexafluoropropan-2-yl)-6-(difluoromethoxy)phenyl]quinoline-6-carboxamide 1-oxide]	–	–	–	–	–	95	100	100	–	100	100	100	–	–
N#Cc1ccc2cc(C(=O)Nc3c(Br)cc(C(F)(C(F)(F)F)C(F)(F)C(F)(F)F)cc3OC(F)F)ccc2n1 (centres unmarked) [Compound No. 2-173, N-[2-bromo-6-(difluoromethoxy)-4-(1,1,1,2,3,3,4,4,4-nonafluorobutan-2-yl)phenyl]-2-cyanoquinoline-6-carboxamide]	–	–	–	–	100	–	–	–	100	100	–	100	–	–
N#Cc1ccc2cc(C(=O)Nc3c(I)cc(C(F)(C(F)(F)F)C(F)(F)F)cc3I)ccc2n1 [2-69]	100	100	–	100	–	–	–	–	–	–	–	–	100	–
O=C(Nc1c(Br)cc(C(F)(C(F)(F)F)C(F)(F)C(F)(F)F)cc1Br)c1ccc2ncccc2c1 (centres unmarked) [2-108]	100	100	80	–	–	–	–	–	–	–	–	–	–	80% and 95%
Cc1cc(C(F)(C(F)(F)F)C(F)(F)F)cc(C)c1NC(=O)c1ccc2ncc(Cl)cc2c1 [Compound No. 2-213, 3-chloro-N-[4-(1,1,1,2,3,3,3-heptafluoropropan-2-yl)-2,6-dimethylphenyl]quinoline-6-carboxamide]	–	–	–	–	100	–	100	100	–	100	80	–	–	–
N#Cc1ccc2cc(C(=O)Nc3c(Br)cc(C(F)(C(F)(F)F)C(F)(F)F)cc3OC(F)F)ccc2n1 [Compound No. 2-154, N-[2-bromo-6-(difluoromethoxy)-4-(1,1,1,2,3,3,3-heptafluoropropan-2-yl)phenyl]-2-cyanoquinoline-6-carboxamide]	–	–	–	–	100	–	–	–	90	100	–	100	–	–
Cc1cc(C(F)(C(F)(F)F)C(F)(F)F)cc(C)c1NC(=O)c1ccc2nc(C#N)ccc2c1 [Compound No. 2-20, 2-cyano-N-[4-(1,1,1,2,3,3,3-heptafluoropropan-2-yl)-2,6-dimethylphenyl]quinoline-6-carboxamide]	–	–	–	–	100	100	100	100	–	100	95	–	–	–
O=C(Nc1c(I)cc(C(F)(C(F)(F)F)C(F)(F)C(F)(F)F)cc1OC(F)F)c1ccc2ncccc2c1 (centres unmarked) [Compound No. 2-174, N-[2-(difluoromethoxy)-6-iodo-4-(1,1,1,2,3,3,4,4,4-nonafluorobutan-2-yl)phenyl]quinoline-6-carboxamide]	–	–	–	–	100	100	100	100	–	100	100	100	–	–
O=C(Nc1c(Br)cc(C(F)(C(F)(F)F)C(F)(F)Br)cc1OC(F)F)c1ccc2ncccc2c1 (centres unmarked) [Compound No. 2-201, N-[2-bromo-4-(1-bromo-1,1,2,3,3,3-hexafluoropropan-2-yl)-6-(difluoromethoxy)phenyl]quinoline-6-carboxamide]	–	–	–	–	100	100	100	100	–	100	100	100	–	–
